Columns and labels:
Format in all cases: biochemical
[1] = biological target: T1, Human Neutrophil elastase (Homo sapiens, UniProt P08246); experiment: Ki determination, human neutrophil elastase (pyroGlu-Pro-Val-pNA); conditions: 100 mM Tris-HCl, pH 8.3, 0.96 M NaCl, 1% BSA; read-out: Experimentally Determined Ki, Elastase
T1 construct: from tissue; host or cells: human neutrophils
T1 sequence (P08246 30-267): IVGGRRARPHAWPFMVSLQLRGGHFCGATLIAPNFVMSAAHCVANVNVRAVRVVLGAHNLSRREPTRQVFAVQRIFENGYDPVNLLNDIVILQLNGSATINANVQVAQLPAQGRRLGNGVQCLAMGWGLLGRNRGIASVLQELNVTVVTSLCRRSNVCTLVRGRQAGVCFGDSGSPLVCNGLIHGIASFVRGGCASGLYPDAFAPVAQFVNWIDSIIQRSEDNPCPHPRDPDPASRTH
Procedure, shortened: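 Enzyme preincubated with compound 15 min at 37° C. in 100 mM Tris-HCl pH 8.3, 0.96 M NaCl, 1% BSA, then pyroGlu-Pro-Val-pNA added; p-nitroaniline release read at 405 nm. Ki from tight-binding equation (active-site-titrated enzyme) corrected for substrate, or competitive-inhibitor equation when Ki >> [E]o.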

Human lung tryptase = experiment: Ki determination, human lung tryptase (Tosyl-Gly-Pro-Arg-pNA substrate); conditions: 50 mM Tris-HCl pH 8.0, 37° C., 1 nM tryptase, 320 μM GPR-pNA; read-out: Experimentally Determined Ki, Tryptase
Procedure, shortened: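 Human lung tryptase (gel-filtration purified, active-site titrated), 1 nM final, preincubated 5 min with compound in 50 mM Tris-HCl pH 8.0, 150 mM NaCl, 0.02% Triton X-100 at 37° C. Tosyl-Gly-Pro-Arg-pNA (320 μM final) added; A405 read after 15 min. Ki from fitting to two-site competitive binding equation.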

Human plasma plasmin = biological target: T2, Human plasma plasmin (Homo sapiens, UniProt P00747); experiment: Ki determination, human plasma plasmin (Tosyl-Gly-Pro-Lys-pNA); conditions: 100 mM Tris-HCl, pH 7.4, 100 mM NaCl, 0.05% Triton X-100; read-out: Experimentally Determined Ki, Plasmin
T2 construct: from tissue; host or cells: human plasma
Procedure, shortened: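 Enzyme preincubated with inhibitor 15 min at 37° C. in 100 mM Tris-HCl pH 7.4, 100 mM NaCl, 0.05% Triton X-100, then Tosyl-Gly-Pro-Lys-pNA added; p-nitroaniline release followed at 405 nm. Ki from tight-binding equation (active-site-titrated [E]o), corrected for substrate, or competitive-inhibitor equation when Ki >>[E]o.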

r-tissue kallikrein = r-tissue kallikrein (Homo sapiens, UniProt P06870); experiment: Ki determination, r-tissue kallikrein (DL-Val-Leu-Arg-pNA); conditions: 50 mM Tris-HCl, pH 7.8, 200 mM NaCl, 0.05% BSA; read-out: Experimentally Determined Ki, Tissue Kallikrein
Procedure, shortened: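 Enzyme preincubated with test compound 15 min at 37° C in 50 mM Tris-HCl pH 7.8, 200 mM NaCl, 0.05% BSA; residual activity read at 405 nm after adding H-D-Prolyl-Phe-Arg-pNA (plasma) or DL-Val-Leu-Arg-pNA (tissue). Ki from tight-binding equation (enzyme active-site titrated) corrected for substrate, or competitive-inhibitor equation when Ki >>[E]o.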

Human plasma factor Xa = biological target: T3, Human plasma factor Xa (Homo sapiens, UniProt P00742); experiment: Ki determination, human plasma factor Xa (N-Benzoyl-Ile-Glu-Gly-Arg-pNA); conditions: 50 mM Tris-HCl, pH 7.8, 200 mM NaCl, 0.05% BSA; read-out: Experimentally Determined Ki, Factor Xa
T3 construct: from tissue; host or cells: human plasma
Procedure, shortened: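 Enzyme preincubated with compound 15 min at 37° C in 50 mM Tris-HCl pH 7.8, 200 mM NaCl, 0.05% BSA, then N-Benzoyl-Ile-Glu-Gly-Arg-pNA added and p-nitroaniline read at 405 nm. Ki from tight-binding equation with active-site-titrated enzyme, corrected for substrate, or from competitive-inhibitor equations when Ki >> [E]o.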

Sequence of r-tissue kallikrein (P06870 25-262): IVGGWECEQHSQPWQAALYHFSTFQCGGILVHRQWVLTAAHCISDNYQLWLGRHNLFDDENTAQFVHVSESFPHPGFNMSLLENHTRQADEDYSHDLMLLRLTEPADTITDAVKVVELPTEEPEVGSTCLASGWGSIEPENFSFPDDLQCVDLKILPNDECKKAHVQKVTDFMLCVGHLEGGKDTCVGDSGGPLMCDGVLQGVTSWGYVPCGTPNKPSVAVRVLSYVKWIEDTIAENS
T2 sequence (P00747 581-810 limits assumed): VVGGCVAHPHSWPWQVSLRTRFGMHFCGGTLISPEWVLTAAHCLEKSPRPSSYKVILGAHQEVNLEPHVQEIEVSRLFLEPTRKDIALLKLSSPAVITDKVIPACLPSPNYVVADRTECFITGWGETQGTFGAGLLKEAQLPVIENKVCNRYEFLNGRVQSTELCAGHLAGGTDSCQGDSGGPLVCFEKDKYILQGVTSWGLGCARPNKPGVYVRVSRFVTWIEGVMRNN
T2 sequence (P00747 97-580 partner limits assumed): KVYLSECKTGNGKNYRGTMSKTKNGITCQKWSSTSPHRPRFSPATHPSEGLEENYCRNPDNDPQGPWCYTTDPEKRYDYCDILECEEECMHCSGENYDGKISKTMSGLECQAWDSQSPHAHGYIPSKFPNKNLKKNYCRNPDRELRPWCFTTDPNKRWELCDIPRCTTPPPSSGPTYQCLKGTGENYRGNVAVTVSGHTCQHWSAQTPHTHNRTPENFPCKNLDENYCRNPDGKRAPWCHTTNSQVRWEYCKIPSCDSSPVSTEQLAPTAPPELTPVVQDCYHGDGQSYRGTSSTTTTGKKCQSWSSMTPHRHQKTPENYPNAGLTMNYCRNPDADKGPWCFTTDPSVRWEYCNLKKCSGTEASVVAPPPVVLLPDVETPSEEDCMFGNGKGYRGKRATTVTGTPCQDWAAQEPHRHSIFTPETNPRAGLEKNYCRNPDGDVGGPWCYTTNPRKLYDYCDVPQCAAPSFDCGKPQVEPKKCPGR
T3 sequence (P00742 235-488 limits assumed): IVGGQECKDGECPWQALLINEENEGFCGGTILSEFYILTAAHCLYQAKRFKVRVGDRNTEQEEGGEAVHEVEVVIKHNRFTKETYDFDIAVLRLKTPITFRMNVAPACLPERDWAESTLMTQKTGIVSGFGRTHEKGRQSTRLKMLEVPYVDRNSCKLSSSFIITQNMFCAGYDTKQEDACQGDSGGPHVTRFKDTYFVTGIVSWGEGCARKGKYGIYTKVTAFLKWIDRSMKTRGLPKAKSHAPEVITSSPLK
T3 sequence (P00742 41-179 partner limits assumed): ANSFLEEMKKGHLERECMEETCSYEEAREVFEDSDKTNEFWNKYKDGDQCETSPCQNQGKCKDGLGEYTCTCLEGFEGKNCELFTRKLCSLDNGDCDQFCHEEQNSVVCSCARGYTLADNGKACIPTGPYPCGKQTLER

In the case of N=C(N)c1cccc(S(=O)(=O)NCc2ccc(OCCOc3ccc(CNS(=O)(=O)c4cccc(C(=N)N)c4)cc3)cc2)c1 [Example 51, 1,2-Bis-{4-[(3-carbamimidoyl-benzenesulfonylamino)-methyl]-phenoxy}-ethane], the Ki [1] is reported as > 100 µM, the Ki (Human lung tryptase) is reported as 0.03 µM and the Ki (Human plasma plasmin) is reported as 2 µM. For the same compound, the Ki (r-tissue kallikrein) was > 100 µM and the Ki (Human plasma factor Xa) was 6.1 µM.

For N=C(N)c1ccc2cc(C(=O)NCc3ccc(OCCOc4ccc(CNC(=O)c5ccc6cc(C(=N)N)ccc6c5)cc4)cc3)ccc2c1 [Example 100, 1,2-Bis-{4-[(6-carbamimidoylnaphthalene-2-carbonylamino)-methyl]-phenoxy}-ethane], the Ki [1] was > 100 µM, the Ki (Human lung tryptase) was 0.0002 µM and the Ki (Human plasma plasmin) was 0.74 µM. For the same compound, the Ki (r-tissue kallikrein) was > 100 µM and the Ki (Human plasma factor Xa) was > 100 µM.

For N=C(N)c1cccc(C(=O)NCc2ccc(OCCCCCOc3ccc(CNC(=O)c4cccc(C(=N)N)c4)cc3)cc2)c1 [Example 55, 1,5-Bis-{4-[(3-carbamimidoyl-benzenecarbonylamino)-methyl]-phenoxy}-pentane], the Ki [1] was > 100 µM, the Ki (Human lung tryptase) was 0.01 µM and the Ki (Human plasma plasmin) was 7.6 µM. For the same compound, the Ki (r-tissue kallikrein) was > 100 µM and the Ki (Human plasma factor Xa) was 1.8 µM.

With N=C(N)c1ccc(C(=O)NCc2ccc(OCCCCOc3ccc(CNC(=O)c4ccc(C(=N)N)cc4)cc3)cc2)cc1 [Example 60, 1,4-Bis-{4-[(4-carbamimidoyl-benzenecarbonylamino)-methyl]-phenoxy}-butane] the Ki [1] was > 100 µM, the Ki (Human lung tryptase) was 0.0002 µM and the Ki (Human plasma plasmin) was 12 µM. The Ki (r-tissue kallikrein) was > 100 µM and the Ki (Human plasma factor Xa) was 17.7 µM.

With N=C(N)c1cccc(S(=O)(=O)NCc2ccc(OCCCOc3ccc(CNS(=O)(=O)c4cccc(C(=N)N)c4)cc3)cc2)c1 [Example 49, 3,1-Bis-{4-[(3-carbamimidoyl-benzenesulfonylamino)-methyl]-phenoxy}-propane] the Ki [1] was > 100 µM, the Ki (Human lung tryptase) was 0.02 µM and the Ki (Human plasma plasmin) was 0.74 µM. The Ki (r-tissue kallikrein) was > 100 µM and the Ki (Human plasma factor Xa) was 7.4 µM.

For N=C(N)c1cccc(S(=O)(=O)NCc2ccc(OCCCCCOc3ccc(CNS(=O)(=O)c4cccc(C(=N)N)c4)cc3)cc2)c1 [Example 41, 1,5-Bis-{4-[(3-carbamimidoyl-benzenesulfonylamino)-methyl]-phenoxy}-pentane], the Ki [1] was > 100 µM, the Ki (Human lung tryptase) was 0.08 µM and the Ki (Human plasma plasmin) was 0.93 µM. For the same compound, the Ki (r-tissue kallikrein) was > 100 µM and the Ki (Human plasma factor Xa) was 6.4 µM.

N=C(N)c1cccc(C(=O)NCc2cccc(OCCCCCOc3cccc(CNC(=O)c4cccc(C(=N)N)c4)c3)c2)c1 [Example 77, 1,5-Bis-{3-[(3-carbamimidoyl-benzenecarbonylamino)-methyl]-phenoxy}-pentane] was tested, and the Ki [1] was > 100 µM, the Ki (Human lung tryptase) was 0.01 µM and the Ki (Human plasma plasmin) was 4.3 µM. For the same compound, the Ki (r-tissue kallikrein) was 32 µM and the Ki (Human plasma factor Xa) was 1.9 µM.
